{"source": "patent US20110207694A1", "about": "“MAMMALIAN HYPOTHALAMIC NUTRIENT MODULATION OF GLUCOSE METABOLISM” (priority 2005, published 2011)", "key": {"rats": {"system": "rats", "assay": "Food intake after central (ICV) glucose or lactate", "format": "in vivo, rat", "details": "central administration"}, "male Sprague-Dawley rats": {"system": "male Sprague-Dawley rats", "details": "ICV 2 mM glucose, 5 μl/h (Lam et al., 2005b); cited from earlier work"}, "high fat-fed rats [1]": {"system": "high fat-fed rats", "assay": "Central glucose or lactate in regular chow vs 3-day high fat diet-fed animals: glucose production", "format": "in vivo, rat", "details": "central administration", "from_the_text": "The latter is an excellent model for diet-induced insulin resistance."}, "conscious rats": {"system": "conscious rats", "assay": "ICV glucose or lactate infusion with pancreatic basal insulin clamp: plasma glucose and liver glucose production", "format": "in vivo, rat", "from_the_text": "We hypothesize that the hypothalamic sensing of glucose-derived pyruvate is a novel regulator of endogenous glucose production (GP). […] We propose that an increase in neuronal pyruvate levels is a hypothalamic signal of nutrient availability.\nLong chain fatty acids in the brain decrease glucose production (GP) by the liver via activation of hypothalamus ATP-sensitive (KATP) channels. Here we tested whether (A) direct administration of glucose in the third cerebral ventricle can alter glucose production by the liver, and (B) whether this effect requires its metabolism in the TCA cycle."}, "hepatic VLDL secretion": {"system": "hepatic VLDL secretion", "assay": "Lipoprotein (VLDL) secretion studies with tyloxapol; NMR particle size", "format": "in vivo, rat", "details": "ICV glucose", "protocol": "Lipoproteins secretion and particles concentration and size measurements. Tyloxapol (600 mg/kg; ˜1 min) was intravenously injected to inhibit endogenous lipoprotein lipase. This high dose of tyloxapol ensured complete inhibition of triglyceride clearance during VLDL secretion studies. Plasma samples were taken every 30 min for triglycerides analysis and for lipoprotein profiling. Plasma VLDL particles concentration and size were determined by nuclear magnetic resonance spectroscopy (lipoprofile-II test) at Liposcience as previously described (Otvos et al., 1991; 1992). This NMR lipoprofile-II test is based on the assumption that each plasma lipoprotein particle of a particular size gives its own characteristic lipid NMR signal. The intensity of the signal is also in proportion to the concentration of the particle. The diameter range for large, medium and small VLDL is >60 nm, 35-60 nm, and 27-35 nm, respectively.\nSelective hepatic branch vagotomy. The surgeries were performed as described (Lam et al., 2005c).\n(§1) Treatment with SCD1 ASO. Five and two days before the lipoprotein secretion studies, rats received a single intra-peritoneal injection of either SCD1 or scrambled (SCR) ASO (100 mg/kg of body weight). […] In a separate set of studies, rats received intra-portal injection of either SCD1 or SCR ASO (40 mg/kg of body weight) (Gutierrez-Juarez et al., 2006) three days before the lipoprotein secretion studies.\nPortal oleate infusion. Chronic portal catheter was implanted and 7 days were allowed for rat recovery. Oleic acid (45 mM; dissolved in 45% HBP) was infused at a rate of 40 μl/h for 2.5 h (1 h before the 90 min lipoprotein secretion studies). This dose enabled the reconstitution of hepatic oleyl-CoA levels back to normal during portal SCD1 ASO (FIG. 11c) or ICV glucose studies (FIG. 11d)."}, "high fat-fed rats [2]": {"system": "high fat-fed rats", "assay": "ICV glucose or lactate in high fat-fed rats: plasma triglycerides and VLDL secretion", "format": "in vivo, rat", "protocol": "High fat feeding. Male Sprague-Dawley rats were fed a highly palatable high fat diet for three days. These rats developed hyperinsulinemia and hepatic insulin resistance (Morgan et al., 2004). […] In a separate set of studies, lipoprotein secretion studies were performed at the beginning of the ICV infusions."}, "mediobasal hypothalamus": {"system": "mediobasal hypothalamus", "assay": "Intrahypothalamic (IH) infusion of glucose or DCA with pancreatic basal insulin clamp", "format": "in vivo, rat", "details": "IH administration", "from_the_text": "FIG. 3 is a diagram of experimental protocols (Panel (a)) and graphs of results of those experiments utilizing intrahypothalamic (IH) infusions of glucose.\nFIG. 4 is a schematic and graphs of experimental results showing the effect of dichloroacetate (DCA), an inhibitor of pyruvate dehydrogenase kinase, having the effect of activating pyruvate dehydrogenase (PDH). The schematic of Panel (a) illustrates the PDH activation effect of DCA in the context of glucose metabolism, the TCA cycle, and nervous system cells.\nWe have localized the effect of glucose on liver glucose production to the mediobasal hypothalamus. This was accomplished using bilateral intraparenchymal (rather than ICY) delivery of both glucose and the KATP blocker GLI."}, "[3]": {"system": "Stearoyl-CoA Desaturase 1 (SCD1)", "assay": "Liver SCD1 activity, SCD1 mRNA and LCFA-CoA measurements", "format": "in vivo, rat", "protocol": "as §1\nLiver LCFA-CoA measurements. The liver was sampled and the LCFA-CoAs were extracted from the liver and measured by high-performance liquid chromatography (HPLC) as previously described (Lam et al., 2005c).\nStearoyl-CoA Desaturase 1 (SCD1) activity. CD1 activity assays were performed essentially as described (Cohen et al., 2002) using 1-[^14C]-stearoyl-CoA as a substrate. At the end of the reaction incubation long-chain acyl CoAs (LC Acyl-CoAs) were extracted and fractionated by reverse-phase HPLC as previously reported (Lam et al., 2005c). Chromatographically resolved stearoyl CoA (C18:0) and oleyl-CoA (C18:1) peaks were collected and counted in a β-scintillation counter. Protein was assayed by the bicinchoninic acid (BCA) method using a commercially available kit (Pierce Biotechnology, Rockford, Ill.) according to the manufacturer's instructions.\nGene expression. Stearoyl-CoA Desaturasel (SCD1) mRNA was measured by quantitative real-time PCR. Briefly, total RNA was extracted from either liver or fat tissue using the Trizol reagent (Invitrogen, Carlsbad, Calif.) according to the manufacturer instructions. cDNA was then synthesized from 2 μg of total RNA using the Superscript® III First-Strand kit TM? (Invitrogen, Carlsbad, Calif.). Samples of RNA in which the reverse transcriptase was omitted (no RT controls) were also included. The cDNA and no RT controls were diluted 1:20 with PCR grade water and 2 μl from each sample was used for PCR in a total volume of 20 μl. The FastStart DNA Master SYBR Green I kit (Roche Applied Science, Indianapolis, Ind.) and a LightCycler® 2 instrument (Roche Applied Science, Indianapolis, Ind.) were used in all experiments. Either 18S mRNA expression was routinely measured for normalization purposes. The primer sequences used were as follows: 5′-[…]-3′ and 5′-[…]-3′ for Scd1; and 5′-[…]-3′ and 5′-[…]-3′ for ribosomal 18S. The mRNA copy number was calculated from standard curves obtained using cloned target templates (plasmid DNA) of known copy number for each gene of interest."}}, "data": [{"smiles": "O=C[C@H](O)[C@@H](O)[C@H](O)[C@H](O)CO", "note": "[glucose, D-glucose]", "values": [{"measurement": "food intake overnight", "setting": "rats", "result": "inhibits food intake overnight"}, {"measurement": "rise in hypothalamic glucose levels", "setting": "male Sprague-Dawley rats", "result": "~70", "unit": "%"}, {"measurement": "glucose production", "setting": "high fat-fed rats [1]; 3-day high fat diet-fed animals", "result": "severely impaired"}, {"measurement": "glucose production", "setting": "high fat-fed rats [1]; regular chow animals", "result": "lowered glucose production"}, {"measurement": "circulating glucose levels", "setting": "conscious rats; central (ICV) administration", "result": "lowered circulating glucose levels"}, {"measurement": "gluconeogenesis and glycogenolysis", "setting": "conscious rats; central administration", "result": "inhibited gluconeogenesis and glycogenolysis"}, {"measurement": "liver glucose production, G6Pase flux and mRNA", "setting": "conscious rats; central administration", "result": "reduced liver glucose production, G6Pase flux and mRNA"}, {"measurement": "plasma glucose concentrations", "setting": "conscious rats; four hour ICV infusion 5 μl/h (glucose 2 mM, lactate 5 mM), control 150±4", "result": "133 ± 5", "unit": "mg/dL"}, {"measurement": "exogenous glucose infusion rate required to maintain euglycemia", "setting": "conscious rats; pancreatic basal insulin clamps, central administration", "result": "increased exogenous glucose infusion rate"}, {"measurement": "GP (glucose production)", "setting": "conscious rats; pancreatic clamps, plasma glucose and insulin at basal, ICV infusion, control 10.4±0.1 (glucose), 11.7±0.6 (lactate)", "result": "7.4 ± 0.3", "unit": "mg/kg/min"}, {"measurement": "hepatic content of triglycerides", "setting": "hepatic VLDL secretion", "result": "increased"}, {"measurement": "rate of secretion of small (27-35 nm) and medium (35-60 nm) VLDL particles", "setting": "hepatic VLDL secretion", "result": "tended to be higher"}, {"measurement": "secretion of large triglyceride-rich VLDL particles (diameter >60 nm)", "setting": "hepatic VLDL secretion", "result": "dramatically and selectively blunted the secretion of large triglyceride-rich VLDL particles"}, {"measurement": "average size of the secreted VLDL particles", "setting": "hepatic VLDL secretion; NMR spectroscopy", "result": "significant decrease in the average size of the secreted VLDL particles"}, {"measurement": "rate of secretion of VLDL-triglycerides", "setting": "hepatic VLDL secretion; tyloxapol 600 mg/kg", "result": "suppressed the rate of secretion of VLDL-triglycerides within 90 minutes"}, {"measurement": "inhibitory effect on VLDL secretion in rats with resection of the hepatic branch of the vagus", "setting": "hepatic VLDL secretion; preserved in sham-operated rats", "result": "abolished"}, {"measurement": "rate of appearance of VLDL-triglycerides in plasma", "setting": "high fat-fed rats [2]; HF rats, tyloxapol", "result": "failed to decrease the rate of appearance of VLDL-triglycerides in plasma"}, {"measurement": "circulating levels of triglycerides", "setting": "high fat-fed rats [2]; high fat-fed rats", "result": "failed to decrease the circulating levels of triglycerides"}, {"measurement": "circulating glucose levels", "setting": "mediobasal hypothalamus", "result": "lowered circulating glucose levels"}, {"measurement": "glucose production", "setting": "mediobasal hypothalamus; clamp", "result": "suppressed liver glucose production"}, {"measurement": "glucose utilization", "setting": "mediobasal hypothalamus; clamp", "result": "unchanged"}, {"measurement": "exogenous glucose infusion rate to maintain euglycemia", "setting": "mediobasal hypothalamus; pancreatic basal insulin clamps", "result": "increased exogenous glucose infusion rate"}, {"measurement": "decrease in hepatic expression and activity of SCD1", "setting": "[3]; ICV glucose", "result": "~70", "unit": "%"}, {"measurement": "hepatic desaturation index (oleyl-CoA over stearoyl-CoA)", "setting": "[3]; ICV glucose", "result": "reduction in the hepatic desaturation index"}, {"measurement": "hepatic oleyl-CoA levels", "setting": "[3]; ICV glucose", "result": "decreased the levels of oleyl-CoA"}, {"measurement": "hepatic stearoyl-CoA levels", "setting": "[3]; ICV glucose", "result": "increasing those of stearoyl-CoA"}, {"measurement": "hepatic oleyl-CoA levels, desaturation index and SCD1 activity", "setting": "[3]; after 1 h (60 min) of ICV glucose infusion", "result": "Significant decreases in hepatic oleyl-CoA levels, desaturation index, and SCD1 activity"}]}]}
